Test results published in paper PMC9499525, “Tissue-restricted inhibition of mTOR using chemical genetics” (Proceedings of the National Academy of Sciences of the …, 2022).
Like-named read-outs stand apart in the source and are kept apart here.

What was measured:
[1] = system: S. cerevisiae BY4741 fpr1-KO expressing human FKBP12 variants; experiment: Yeast disk diffusion growth inhibition assay; format: cell-based, Saccharomyces cerevisiae; conditions: 100 µM on disk, 3 d
Source text: BY4741 fpr1::URA3 yeast were generated by homologous recombination, selected on Ura- synthetic complete medium and subsequently grown in yeast extract-peptone-dextrose (YPD) medium ([46]). Human FKBP12 coding sequence was cloned via Gibson assembly into a pCH043 yeast expression vector, which had been previously modified with an HIS3 selection open reading frame (ORF). The C-terminal HA-tag and F46/V55 mutations were introduced by site-directed mutagenesis PCR. Plasmids were transformed into the BY4741 fpr1::URA3 strain and selected on His- synthetic complete medium. Isolated strains were verified by plasmid sequencing. To prepare yeast protein lysates, 2 optical density (OD) equivalents from an overnight culture was resuspended in 200 µl 0.1 M NaOH and incubated at room temperature for 15 min. Cells were pelleted, resuspended in 50 µL 2x SDS loading dye, and heated at 95 °C for 5 min. Following centrifugation at 20,000 × g for 10 min, supernatant was saved for analysis.
Yeast strains containing FKBP12-expression vectors were shaken overnight at 30 °C in 3 mL His- synthetic complete media. 0.1 OD of culture was spun down, resuspended in 1 mL sterile water, and 100 µL was spread on His-synthetic media containing galactose/raffinose to induce protein expression. Plates were incubated at 30 °C for 1 h to dry. Filter paper circles were prepared with a hole punch, placed on the plate, and 5 µL of DMSO, 100 µM rapamycin, or 100 µM Rapa* compound was pipetted onto the filter paper. Plates were incubated at 30 °C for 3 d before zones of growth inhibition were measured.

[2] = system: mTOR signaling in Flp-In T-REx 293 FKBP12 V55G cells; experiment: mTOR signaling by Western blot in FKBP12 V55G-expressing Flp-In 293 cells; format: cell-based, human; conditions: for IC50: Homo sapiens, 24 h treatment, mutant (FKBP12 V55G) 293 cells
Method: All cell lines were maintained in DMEM (Gibco) supplemented with 10% heat-inactivated FBS (Axenia Biologix) at 37 °C in 5% CO2. Flp-In T-REx 293 cells were obtained from Thermo Fisher supplemented with 15 µg/mL blasticin and 100 µg/mL Zeocin. Flp-In T-REx 293 FKBP12 V55G cells were supplemented with 15 µg/mL blasticin and 150 µg/mL hygromycin B. FKBP12 V55G expression was induced with 1 µg/mL doxycycline 24 h prior to drug treatments. MCF7 cells were obtained from ATCC (American Type Culture Collection), and MCF7 mTOR F2108L cells were described previously ([30]). When indicated, cells were treated with drugs at 60–80% confluency at a final DMSO concentration of 0.1%. At the end of the treatment period, cells were placed on ice and washed once with PBS. Cells were scraped with a spatula and lysed in radioimmunoprecipitation assay (RIPA) buffer supplemented with protease and phosphatase inhibitors (cOmplete and phosSTOP, Roche) on ice for 5 min. Lysates were clarified by high-speed centrifugation. Lysate concentration was determined by Bradford assay (Thermo Fisher) and adjusted to 2 mg/mL with additional RIPA buffer. Samples were mixed with 5x SDS loading dye and heated at 95 °C for 5 min.
SDS-PAGE was run with Novex 4–12% Bis-Tris gel (Invitrogen) in MOPS running buffer at 200V for 40 min. Samples were loaded at 20 µg lysate per lane. Protein bands were transferred onto 0.2 µm nitrocellulose membranes (Bio-Rad) using wet tank transfer apparatus (Bio-Rad Criterion Blotter) in 1x TOWBIN buffer with 10% methanol at 75V for 45 min. Membranes were blocked in 5% BSA-TBST (tris-buffered saline, 0.1% Tween 20) for 1 h at room temperature. Membranes were cut into separate strips for each primary antibody. Primary antibody binding was performed with the indicated antibodies at manufacturer’s recommended dilution in 5% BSA-TBST at 4 °C overnight. After three 5 min. washes with TBST, secondary antibodies (Li-COR) were added as solutions in 5% skim milk-TBST at 1:10,000 dilutions. Secondary antibodies were incubated for 1 h at room temperature. Following three 5 min. washes with TBST, membranes were imaged on a Li-COR Odyssey fluorescence imager. Image contrast was adjusted independently for each strip using the “Auto” adjustment function in Fiji. Blot quantification was performed in Fiji, and data were graphed and fit in Prism 9 (GraphPad). The following primary antibodies were obtained from Cell Signaling Technology (CST), Abcam (ab), and ProteinTech (PT): S6 (CST 2317), phospho-S6 S240/244 (CST 5364), S6K (CST 2708), phospho-S6K T389 (CST 9206), Akt (CST 2920), phospho-Akt S473 (CST 4060), HA (CST 3724), FKBP12 (ab58072), and GAPDH (PT 60004). For detection of phosphorylated and total protein, primary antibodies for phospho-Akt/Akt, phospho-S6K/S6K, or phospho-S6/S6 were combined and detected using a mixture of species-specific secondary antibodies with orthogonal fluorescence to allow simultaneous detection of phosphorylated and total protein from a single membrane, or membrane was stripped (Cell Signaling Technology) after detection of phosphorylated protein and then reblocked and reprobed with primary antibody for total protein. […]
Generation of 293 Flp-In T-REx FKBP12 V55G cell line
FKBP12 V55G-expressing Flp-In T-REx 293 cells were generated using recommended conditions from Thermo Fisher. Briefly, human FKBP12 V55G-HA coding sequence was cloned into the pcDNA5/FRT/TO targeting vector by Gibson assembly. […]

CCO/N=C1/C[C@@H]([C@H](C)C[C@@H]2CC[C@@H](O)[C@H](OC)C2)OC(=O)[C@@H]2CCCCN2C(=O)C(=O)[C@]2(O)O[C@@H](CC[C@H]2C)C[C@H](OC)/C(C)=C/C=C/C=C/[C@@H](C)C[C@@H](C)C(=O)[C@H](OC)[C@H](O)/C(C)=C/[C@H]1C [Rapa*-3Z]
Growth inhibition of yeast expressing FKBP12 V55G [1]: displayed the highest level of inhibition
Stability under experimental conditions (fly food, room temperature) (15 days, 100 µM): at least 15 d
Decomposition to rapamycin after prolonged storage (storage under experimental conditions, wild-type larvae readout): does not decompose to rapamycin
Time to half-maximal inhibition of S6 phosphorylation ([2]; 10 nM, mutant FKBP12 293 cells): 31 min
Akt phosphorylation (mTORC2 substrate) ([2]; 24 h, mutant vs wild-type 293 cells): selectively reduced Akt phosphorylation in the mutant 293 cells at higher doses
IC50 ([2]; read-out: IC50 phospho-S6): 1.3 nM
IC50 ([2]; read-out: IC50 phospho-S6K): 1 nM
Increase in sensitivity in mutant-expressing cells vs wild-type cells ([2]; p-S6K and p-S6 IC50s, 24 h): ~100 fold
